Measurements taken from US9593305B2, “Differentiation of pluripotent stem cells” (Janssen Biotech, Inc., priority 2008, dated 2017).

System: H1 human embryonic stem cells
Experiment: Step-wise differentiation, RT-PCR of differentiation markers (Example 17, Table 15)
Assay type: cell-based
Experimental: Stock cultures of human embryonic stem cells (H1 human embryonic stem cell line) were maintained in an undifferentiated, pluripotent state on reduced growth factor […]™ (BD Biosciences; Cat #356231)-coated dishes in MEF conditioned medium supplemented with 8 ng/ml bFGF (PeproTech Inc.; Cat #100-18B) with passage on average every four days. Passage was performed by exposing cell cultures to a solution of 1 mg/ml dispase (Invitrogen; Cat #17105-041) for 5 to 7 minutes at 37° C. followed by rinsing the monolayer with MEF conditioned culture medium and gentle scraping to recover cell clusters. Clusters were centrifuged at low speed to collect a cell pellet and remove residual dispase. Cell clusters were split at a 1:3 or 1:4 ratio for routine maintenance culture or a 1:1 ratio for immediate assay. All human ES cell lines were maintained at passage numbers less than 50 and routinely evaluated for normal karyotype and absence of mycoplasma.
Cell clusters were evenly resuspended in MEF conditioned medium supplemented with 8 ng/ml bFGF and plated onto reduced growth factor […]™-coated 24-well, black wall culture plates (Arctic White; Cat #AWLS-303012) in volumes of 0.5 ml/well. Daily feeding was conducted by aspirating spent culture medium from each well and replacing with an equal volume of fresh medium. Plates were maintained at 37° C., 5% CO2 throughout assay.
The assay was initiated by aspirating the culture medium from each well and adding back an aliquot (0.5 ml) of test medium. Test conditions for the first step of differentiation were conducted over a three-day period, feeding daily by aspirating and replacing the medium from each well with fresh test medium. On the first day of assay, 100 ng/ml activin A (PeproTech; Cat #120-14) or 100 ng/ml GDF-8 (R&D Systems, Cat #788-G8) was added to respective assay wells where each growth factor was diluted into RPMI-1640 medium (Invitrogen; Cat #: 22400) with 2% Albumin Bovine Fraction V, Fatty Acid Free (FAF BSA) (MP Biomedicals, Inc; Cat #152401). In some samples, 20 ng/ml Wnt3a (R&D Systems; Cat #1324-WN/CF) was also included. On the second day of assay, 100 ng/mlactivin A or 100 ng/ml GDF-8 was diluted into RPMI-1640 medium supplemented with 2% FAF BSA, omitting Wnt3a from all samples. In some test samples using GDF-8, Wnt3a was replaced with a given concentration of small molecule compound, added only on the first day of definitive endoderm differentiation. […] At the conclusion of the first step of differentiation, cells from some wells were harvested for flow cytometry analysis to evaluate levels of CXCR4, a marker of definitive endoderm formation. Additional wells were harvested for RT-PCR analysis to measure other markers of differentiation.
At the conclusion of the first step of definitive endoderm differentiation, replicate sets of parallel wells from each treatment group were subjected to further step-wise differentiation. It is important to note that after the first differentiation step, all wells undergoing subsequent culture and differentiation received the same treatment. The protocol for this continuing differentiation is described below.
Step 2 of the differentiation protocol was carried out over two days. Cells were fed daily by aspirating the medium from each well and replacing with a fresh aliquot (0.5 ml) of DMEM:F12 medium (Invitrogen; Cat #11330-032) containing 2% FAF BSA, 50 ng/ml FGF7 (PeproTech; Cat #100-19), and 250 nM cyclopamine-KAAD (Calbiochem; Cat #239804).
Step 3 of the differentiation protocol was carried out over four days. […]

[1] = Step 5, cells harvested at end of step, treatment given during step one

Substance: GDF-8: growth factor GDF-8, also known as myostatin, member of the TGF-β family
- RT-PCR CT Values AFP (Step 1): 40.0
- RT-PCR CT Values CD9 (Step 1): 25.5
- RT-PCR CT Values CD99 (Step 1): 25.9
- RT-PCR CT Values CDH (Step 1): 22.3
- RT-PCR CT Values CDH1 (Step 1): 25.2
- RT-PCR CT Values CDX2 (Step 1): 40.0
- RT-PCR CT Values CER1 (Step 1): 20.1
- RT-PCR CT Values CXCR4 (Step 1): 24.6
- RT-PCR CT Values FGF4 (Step 1): 34.9
- RT-PCR CT Values FGF17 (Step 1): 22.1
- RT-PCR CT Values FOXA2 (Step 1): 25.9
- RT-PCR CT Values GAPDH (Step 1): 21.6
- RT-PCR CT Values GATA4 (Step 1): 27.5
- RT-PCR CT Values GATA6 (Step 1): 24.8
- RT-PCR CT Values GSC (Step 1): 24.2
- RT-PCR CT Values HLXB9 (Step 1): 25.3
- RT-PCR CT Values KIT (Step 1): 25.4
- RT-PCR CT Values MIXL1 (Step 1): 30.6
- RT-PCR CT Values NANOG (Step 1): 25.0
- RT-PCR CT Values OTX2 (Step 1): 24.3
- RT-PCR CT Values POU5F1 (Step 1): 29.5
- RT-PCR CT Values SOX7 (Step 1): 29.8
- RT-PCR CT Values SOX17 (Step 1): 25.2
- RT-PCR CT Values T (Step 1): 32.9
- RT-PCR CT Values ALB (Step 3): 28.7
- RT-PCR CT Values AMY2A (Step 3): 30.4
- RT-PCR CT Values ARX (Step 3): 35.3
- RT-PCR CT Values CDX2 (Step 3): 23.8
- RT-PCR CT Values GAPDH (Step 3): 18.0
- RT-PCR CT Values GCG (Step 3): 40.0
- RT-PCR CT Values HNF4A (Step 3): 23.6
- RT-PCR CT Values INS (Step 3): 40.0
- RT-PCR CT Values ISL1 (Step 3): 28.5
- RT-PCR CT Values MAFA (Step 3): 33.6
- RT-PCR CT Values MAFB (Step 3): 27.2
- RT-PCR CT Values NEUROD1 (Step 3): 30.3
- RT-PCR CT Values NEUROG3 (Step 3): 28.7
- RT-PCR CT Values NKX2-2 (Step 3): 30.3
- RT-PCR CT Values NKX2-5 (Step 3): 34.4
- RT-PCR CT Values NKX6-1 (Step 3): 35.0
- RT-PCR CT Values PAX4 (Step 3): 32.4
- RT-PCR CT Values PAX6 (Step 3): 24.8
- RT-PCR CT Values PDX1 (Step 3): 25.5
- RT-PCR CT Values PECAM (Step 3): 30.0
- RT-PCR CT Values POU3F4 (Step 3): 30.8
- RT-PCR CT Values PTF1A (Step 3): 34.2
- RT-PCR CT Values SST (Step 3): 29.5
- RT-PCR CT Values ZIC1 (Step 3): 26.1
- RT-PCR CT Values ALB (Step 4): 25.5
- RT-PCR CT Values AMY2A (Step 4): 29.1
- RT-PCR CT Values ARX (Step 4): 29.8
- RT-PCR CT Values CDX2 (Step 4): 24.6
- RT-PCR CT Values GAPDH (Step 4): 18.0
- RT-PCR CT Values GCG (Step 4): 31.3
- RT-PCR CT Values HNF4A (Step 4): 23.8
- RT-PCR CT Values INS (Step 4): 30.9
- RT-PCR CT Values ISL1 (Step 4): 27.6
- RT-PCR CT Values MAFA (Step 4): 32.8
- RT-PCR CT Values MAFB (Step 4): 24.1
- RT-PCR CT Values NEUROD1 (Step 4): 29.2
- RT-PCR CT Values NEUROG3 (Step 4): 28.7
- RT-PCR CT Values NKX2-2 (Step 4): 29.0
- RT-PCR CT Values NKX2-5 (Step 4): 32.3
- RT-PCR CT Values NKX6-1 (Step 4): 31.2
- RT-PCR CT Values PAX4 (Step 4): 31.1
- RT-PCR CT Values PAX6 (Step 4): 27.9
- RT-PCR CT Values PDX1 (Step 4): 26.5
- RT-PCR CT Values PECAM (Step 4): 29.4
- RT-PCR CT Values POU3F4 (Step 4): 29.4
- RT-PCR CT Values PTF1A (Step 4): 40.0
- RT-PCR CT Values SST (Step 4): 26.0
- RT-PCR CT Values ZIC1 (Step 4): 22.8
- RT-PCR CT Values ALB (Step 5): 20.5
- RT-PCR CT Values AMY2A (Step 5): 28.2
- RT-PCR CT Values ARX (Step 5): 25.2
- RT-PCR CT Values CDX2 (Step 5): 24.4
- RT-PCR CT Values GAPDH (Step 5): 17.4
- RT-PCR CT Values GCG (Step 5): 18.1
- RT-PCR CT Values HNF4A (Step 5): 22.9
- RT-PCR CT Values INS (Step 5): 17.7
- RT-PCR CT Values ISL1 (Step 5): 24.3
- RT-PCR CT Values MAFA (Step 5): 31.8
- RT-PCR CT Values MAFB (Step 5): 23.3
- RT-PCR CT Values NEUROD1 (Step 5): 24.2
- RT-PCR CT Values NEUROG3 (Step 5): 30.1
- RT-PCR CT Values NKX2-2 [1]: 25.9 CT
- RT-PCR CT Values NKX2-5 [1]: 31.4 CT
- RT-PCR CT Values NKX6-1 [1]: 26.6 CT
- RT-PCR CT Values PAX4 [1]: 29.4 CT
- RT-PCR CT Values PAX6 [1]: 26.6 CT
- RT-PCR CT Values PDX1 [1]: 25.6 CT
- RT-PCR CT Values PECAM [1]: 29.7 CT
- RT-PCR CT Values POU3F4 [1]: 27.8 CT
- RT-PCR CT Values PTF1A [1]: 29.5 CT
- RT-PCR CT Values SST [1]: 21.1 CT
- RT-PCR CT Values ZIC1 [1]: 22.5 CT
